Molecular target: T1, Alpha-2C adrenergic receptor (Homo sapiens, UniProt P18825)
T1 sequence (P18825 whole entry): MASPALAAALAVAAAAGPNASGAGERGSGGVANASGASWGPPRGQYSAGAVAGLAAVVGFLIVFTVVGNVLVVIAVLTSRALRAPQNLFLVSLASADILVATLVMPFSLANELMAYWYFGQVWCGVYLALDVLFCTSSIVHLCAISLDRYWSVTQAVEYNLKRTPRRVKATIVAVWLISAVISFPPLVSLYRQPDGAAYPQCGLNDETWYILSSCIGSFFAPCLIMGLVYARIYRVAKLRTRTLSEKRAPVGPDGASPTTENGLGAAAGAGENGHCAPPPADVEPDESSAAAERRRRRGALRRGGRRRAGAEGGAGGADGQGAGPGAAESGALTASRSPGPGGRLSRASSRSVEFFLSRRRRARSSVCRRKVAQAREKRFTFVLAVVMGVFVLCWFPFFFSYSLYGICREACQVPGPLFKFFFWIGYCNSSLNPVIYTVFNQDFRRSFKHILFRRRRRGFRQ
Experiment: DRUGMATRIX: Adrenergic Alpha-2C radioligand binding (ligand: [3H] MK-912)
Assay type: cell membranes, Sf9, Membrane
Conditions: sf9

Row | Structure (SMILES) | IC50
1 | COc1ccc([C@@H]2Sc3ccccc3N(CCN(C)C)C(=O)[C@@H]2OC(C)=O)cc1 [DILTIAZEM] | Not Active
2 | CC(C)(S)[C@@H](N)C(=O)O [PENICILLAMINE] | Not Active
3 | CCc1ccc(C(=O)C(C)CN2CCCCC2)cc1 (stereo not drawn) [EPERISONE] | Not Active

Molecular target: Sodium-dependent noradrenaline transporter (Homo sapiens, UniProt P23975)
Sequence (P23975 whole entry): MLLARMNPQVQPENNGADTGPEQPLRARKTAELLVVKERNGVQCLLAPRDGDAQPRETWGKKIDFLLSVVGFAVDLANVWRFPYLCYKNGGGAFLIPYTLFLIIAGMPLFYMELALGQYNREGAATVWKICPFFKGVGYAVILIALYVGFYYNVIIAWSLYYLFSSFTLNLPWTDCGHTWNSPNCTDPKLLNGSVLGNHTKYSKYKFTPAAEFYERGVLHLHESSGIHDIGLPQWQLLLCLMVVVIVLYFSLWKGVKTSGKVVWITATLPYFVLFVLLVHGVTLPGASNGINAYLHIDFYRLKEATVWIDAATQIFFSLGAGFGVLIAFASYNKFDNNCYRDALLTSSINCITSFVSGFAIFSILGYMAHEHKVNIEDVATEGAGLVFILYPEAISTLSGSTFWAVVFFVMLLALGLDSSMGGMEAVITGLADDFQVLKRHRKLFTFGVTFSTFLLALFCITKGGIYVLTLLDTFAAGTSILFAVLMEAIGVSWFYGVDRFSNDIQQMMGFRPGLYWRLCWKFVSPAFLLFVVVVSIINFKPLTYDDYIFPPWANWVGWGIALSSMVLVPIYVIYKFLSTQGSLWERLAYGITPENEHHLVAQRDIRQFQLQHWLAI
Experiment: DRUGMATRIX: Norepinephrine Transporter radioligand binding (ligand: [125I] RTI-55)
Assay type: cell membranes, MDCK, Membrane
Conditions: mdck; Not Active = under 50% inhibition at 10 µM

Row | Structure (SMILES) | IC50
4 | COc1ccc([C@@H]2Sc3ccccc3N(CCN(C)C)C(=O)[C@@H]2OC(C)=O)cc1 [DILTIAZEM] | Not Active
5 | CC(C)(S)[C@@H](N)C(=O)O [PENICILLAMINE] | Not Active
6 | CCc1ccc(C(=O)C(C)CN2CCCCC2)cc1 (stereo not drawn) [EPERISONE] | Not Active

Molecular target: Protein phosphatase 3 catalytic subunit alpha (Homo sapiens, UniProt Q08209);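 also: inhibition of calcineurin (PP2B) enzyme activity, measured with DiFMUP as the substrate; in other assays of this panel Not Active means under 50% inhibition at 10 µM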
Set-up: species or system Escherichia coli
Conditions: not given

Row | Structure (SMILES) | IC50
7 | COc1ccc([C@@H]2Sc3ccccc3N(CCN(C)C)C(=O)[C@@H]2OC(C)=O)cc1 [DILTIAZEM] | Not Active
8 | CC(C)(S)[C@@H](N)C(=O)O [PENICILLAMINE] | Not Active
9 | CCc1ccc(C(=O)C(C)CN2CCCCC2)cc1 (stereo not drawn) [EPERISONE] | Not Active

Molecular target: T2, 5-hydroxytryptamine receptor 1A (Rattus norvegicus, UniProt P19327); also: in other assays of this panel Not Active means under 50% inhibition at 10 µM
T2 sequence (P19327 whole entry): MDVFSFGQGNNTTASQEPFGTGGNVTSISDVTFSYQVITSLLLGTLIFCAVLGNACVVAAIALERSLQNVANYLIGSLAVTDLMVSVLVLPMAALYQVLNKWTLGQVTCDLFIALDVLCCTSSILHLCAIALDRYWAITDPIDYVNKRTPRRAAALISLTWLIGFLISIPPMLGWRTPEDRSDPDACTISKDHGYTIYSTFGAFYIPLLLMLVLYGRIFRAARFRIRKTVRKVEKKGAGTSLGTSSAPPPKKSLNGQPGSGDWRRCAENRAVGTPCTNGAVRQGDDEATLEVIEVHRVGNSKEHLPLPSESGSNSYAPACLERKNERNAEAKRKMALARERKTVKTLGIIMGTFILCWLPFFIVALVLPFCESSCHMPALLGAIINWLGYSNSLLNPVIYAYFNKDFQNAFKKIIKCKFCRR
Assay type: cell membranes, CHO-K1, Membrane
Conditions: cho-k1

Row | Structure (SMILES) | IC50
10 | COc1ccc([C@@H]2Sc3ccccc3N(CCN(C)C)C(=O)[C@@H]2OC(C)=O)cc1 [DILTIAZEM] | Not Active
11 | CC(C)(S)[C@@H](N)C(=O)O [PENICILLAMINE] | Not Active
12 | CCc1ccc(C(=O)C(C)CN2CCCCC2)cc1 (stereo not drawn) [EPERISONE] | Not Active

Molecular target: Cannabinoid receptor 1 (Homo sapiens, UniProt P21554); also: in other assays of this panel Not Active means under 50% inhibition at 10 µM
Sequence (P21554 whole entry): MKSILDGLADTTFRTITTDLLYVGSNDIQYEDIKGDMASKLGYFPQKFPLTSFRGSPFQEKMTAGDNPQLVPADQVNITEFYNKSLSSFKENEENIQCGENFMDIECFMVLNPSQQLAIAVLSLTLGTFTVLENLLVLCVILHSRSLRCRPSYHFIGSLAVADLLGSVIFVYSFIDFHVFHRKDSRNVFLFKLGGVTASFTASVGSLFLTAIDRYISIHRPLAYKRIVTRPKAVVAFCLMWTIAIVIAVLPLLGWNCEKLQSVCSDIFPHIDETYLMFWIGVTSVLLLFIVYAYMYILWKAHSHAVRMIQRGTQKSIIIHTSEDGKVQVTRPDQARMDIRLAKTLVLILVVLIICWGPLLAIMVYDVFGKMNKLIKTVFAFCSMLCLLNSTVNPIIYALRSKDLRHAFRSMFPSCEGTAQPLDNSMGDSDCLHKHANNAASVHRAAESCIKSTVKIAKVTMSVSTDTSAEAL
Assay type: cell membranes, Membrane
Conditions: chem-1

Row | Structure (SMILES) | IC50
13 | COc1ccc([C@@H]2Sc3ccccc3N(CCN(C)C)C(=O)[C@@H]2OC(C)=O)cc1 [DILTIAZEM] | Not Active
14 | CC(C)(S)[C@@H](N)C(=O)O [PENICILLAMINE] | Not Active
15 | CCc1ccc(C(=O)C(C)CN2CCCCC2)cc1 (stereo not drawn) [EPERISONE] | Not Active

Molecular target: Beta-2 adrenergic receptor (Homo sapiens, UniProt P07550)
Sequence (P07550 whole entry): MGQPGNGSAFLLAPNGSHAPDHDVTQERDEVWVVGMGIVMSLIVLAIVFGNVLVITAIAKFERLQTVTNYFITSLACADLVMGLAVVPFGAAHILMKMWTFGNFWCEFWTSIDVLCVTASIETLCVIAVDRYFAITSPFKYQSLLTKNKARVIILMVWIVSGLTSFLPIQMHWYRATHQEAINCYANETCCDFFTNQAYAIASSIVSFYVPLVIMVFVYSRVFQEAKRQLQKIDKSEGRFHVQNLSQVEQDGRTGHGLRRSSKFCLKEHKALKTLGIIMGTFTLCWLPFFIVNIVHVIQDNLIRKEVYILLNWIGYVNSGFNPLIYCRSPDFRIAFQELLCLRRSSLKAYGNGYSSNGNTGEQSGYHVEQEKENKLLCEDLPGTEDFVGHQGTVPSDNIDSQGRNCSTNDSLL
Experiment: DRUGMATRIX: Adrenergic beta2 radioligand binding (ligand: [3H] CGP-12177)
Assay type: cell membranes, Membrane
Conditions: cho; Not Active = under 50% inhibition at 10 µM

Row | Structure (SMILES) | IC50
16 | COc1ccc([C@@H]2Sc3ccccc3N(CCN(C)C)C(=O)[C@@H]2OC(C)=O)cc1 [DILTIAZEM] | Not Active
17 | CC(C)(S)[C@@H](N)C(=O)O [PENICILLAMINE] | Not Active
18 | CCc1ccc(C(=O)C(C)CN2CCCCC2)cc1 (stereo not drawn) [EPERISONE] | Not Active

Molecular target: T3, Endothelin-1 receptor (Homo sapiens, UniProt P25101); also: in other assays of this panel Not Active means under 50% inhibition at 10 µM
T3 sequence (P25101 whole entry): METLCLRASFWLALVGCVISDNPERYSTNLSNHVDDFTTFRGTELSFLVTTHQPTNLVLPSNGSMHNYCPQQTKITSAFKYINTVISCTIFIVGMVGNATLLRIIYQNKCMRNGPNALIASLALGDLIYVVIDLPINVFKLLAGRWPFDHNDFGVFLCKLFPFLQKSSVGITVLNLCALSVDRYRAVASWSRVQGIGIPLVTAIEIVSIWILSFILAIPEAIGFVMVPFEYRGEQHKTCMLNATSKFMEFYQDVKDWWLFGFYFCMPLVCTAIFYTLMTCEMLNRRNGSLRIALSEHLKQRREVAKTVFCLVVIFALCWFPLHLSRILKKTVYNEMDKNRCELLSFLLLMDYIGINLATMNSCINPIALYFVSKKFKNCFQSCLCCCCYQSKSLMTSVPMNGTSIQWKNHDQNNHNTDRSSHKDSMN
Assay type: cell membranes, Membrane
Conditions: cho-k1

Row | Structure (SMILES) | IC50
19 | COc1ccc([C@@H]2Sc3ccccc3N(CCN(C)C)C(=O)[C@@H]2OC(C)=O)cc1 [DILTIAZEM] | Not Active
20 | CC(C)(S)[C@@H](N)C(=O)O [PENICILLAMINE] | Not Active
21 | CCc1ccc(C(=O)C(C)CN2CCCCC2)cc1 (stereo not drawn) [EPERISONE] | Not Active

Molecular target: T4, Muscarinic acetylcholine receptor M2 (Homo sapiens, UniProt P08172); also: in other assays of this panel Not Active means under 50% inhibition at 10 µM
T4 sequence (P08172 whole entry): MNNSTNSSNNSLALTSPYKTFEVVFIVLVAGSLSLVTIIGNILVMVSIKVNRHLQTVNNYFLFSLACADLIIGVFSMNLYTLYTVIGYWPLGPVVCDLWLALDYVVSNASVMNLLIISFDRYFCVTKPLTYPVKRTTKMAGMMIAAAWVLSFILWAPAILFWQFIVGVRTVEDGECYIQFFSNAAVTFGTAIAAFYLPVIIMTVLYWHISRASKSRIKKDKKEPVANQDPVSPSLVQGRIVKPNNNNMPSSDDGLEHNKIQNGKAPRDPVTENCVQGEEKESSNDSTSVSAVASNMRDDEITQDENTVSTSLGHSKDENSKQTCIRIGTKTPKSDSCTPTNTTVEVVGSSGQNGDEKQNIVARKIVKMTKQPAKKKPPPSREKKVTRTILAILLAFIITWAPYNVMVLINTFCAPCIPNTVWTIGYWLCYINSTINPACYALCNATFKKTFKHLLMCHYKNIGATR
Assay type: cell membranes, CHO-K1, Membrane
Conditions: cho-k1

Row | Structure (SMILES) | IC50
22 | COc1ccc([C@@H]2Sc3ccccc3N(CCN(C)C)C(=O)[C@@H]2OC(C)=O)cc1 [DILTIAZEM] | Not Active
23 | CC(C)(S)[C@@H](N)C(=O)O [PENICILLAMINE] | Not Active

Same assay, conditions: read-out: IC50

Row | Structure (SMILES) | IC50
24 | CCc1ccc(C(=O)C(C)CN2CCCCC2)cc1 (stereo not drawn) [EPERISONE] | 2.34 µM

Same assay, conditions: read-out: Ki

Row | Structure (SMILES) | Ki
25 | CCc1ccc(C(=O)C(C)CN2CCCCC2)cc1 (stereo not drawn) [EPERISONE] | 0.831 µM

Tested on: not listed separately
Experiment: DRUGMATRIX: Atrial Natriuretic Factor (ANF) radioligand binding (ligand: [125I] ANF (rat))
Assay type: cell membranes, Cavia porcellus, Dunkin-Hartley, Adrenal gland, Membrane
Conditions: Not Active = under 50% inhibition at 10 µM

Row | Structure (SMILES) | IC50 | Ki
26 | COc1ccc([C@@H]2Sc3ccccc3N(CCN(C)C)C(=O)[C@@H]2OC(C)=O)cc1 [DILTIAZEM] | Not Active | Not Active
27 | CC(C)(S)[C@@H](N)C(=O)O [PENICILLAMINE] | Not Active | Not Active
28 | CCc1ccc(C(=O)C(C)CN2CCCCC2)cc1 (stereo not drawn) [EPERISONE] | Not Active | Not Active

Tested on: not listed separately
Experiment: DRUGMATRIX: Calcium Channel Type L, Dihydropyridine radioligand binding (ligand: [3H] Nitrendipine)
Assay type: cell membranes, Rattus norvegicus, Wistar, Cerebral cortex, Membrane
Conditions: Not Active = under 50% inhibition at 10 µM

Row | Structure (SMILES) | IC50 | Ki
29 | COc1ccc([C@@H]2Sc3ccccc3N(CCN(C)C)C(=O)[C@@H]2OC(C)=O)cc1 [DILTIAZEM] | Not Active | Not Active
30 | CC(C)(S)[C@@H](N)C(=O)O [PENICILLAMINE] | Not Active | Not Active
31 | CCc1ccc(C(=O)C(C)CN2CCCCC2)cc1 (stereo not drawn) [EPERISONE] | Not Active | Not Active

Molecular target: Cytochrome P450 2C9 (Homo sapiens, UniProt P11712); also: in other assays of this panel Not Active means under 50% inhibition at 10 µM
Sequence (P11712 whole entry): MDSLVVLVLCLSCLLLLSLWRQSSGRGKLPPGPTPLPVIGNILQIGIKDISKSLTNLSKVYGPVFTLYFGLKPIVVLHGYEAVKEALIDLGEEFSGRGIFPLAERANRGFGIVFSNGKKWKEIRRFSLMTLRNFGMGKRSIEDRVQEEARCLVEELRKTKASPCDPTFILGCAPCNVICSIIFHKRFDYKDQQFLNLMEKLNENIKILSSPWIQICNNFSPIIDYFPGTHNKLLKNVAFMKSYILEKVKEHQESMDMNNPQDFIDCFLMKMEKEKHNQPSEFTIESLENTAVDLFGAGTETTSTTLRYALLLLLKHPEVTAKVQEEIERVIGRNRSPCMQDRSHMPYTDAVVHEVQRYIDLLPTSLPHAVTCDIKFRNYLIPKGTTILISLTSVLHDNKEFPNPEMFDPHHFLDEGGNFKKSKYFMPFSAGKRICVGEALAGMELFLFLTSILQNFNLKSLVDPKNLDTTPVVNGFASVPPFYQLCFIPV
Conditions: bti-tn-5b1-4

Row | Structure (SMILES) | IC50 | Ki
32 | COc1ccc([C@@H]2Sc3ccccc3N(CCN(C)C)C(=O)[C@@H]2OC(C)=O)cc1 [DILTIAZEM] | Not Active | Not Active
33 | CC(C)(S)[C@@H](N)C(=O)O [PENICILLAMINE] | Not Active | Not Active
34 | CCc1ccc(C(=O)C(C)CN2CCCCC2)cc1 (stereo not drawn) [EPERISONE] | Not Active | Not Active

Tested on: not listed separately
Experiment: DRUGMATRIX: Phosphodiesterase PDE3 enzyme inhibition (substrate: [3H]cAMP + cAMP)
Assay type: tissue-based, Homo sapiens
Conditions: platelet; Not Active = under 50% inhibition at 10 µM

Row | Structure (SMILES) | IC50 | Ki
35 | COc1ccc([C@@H]2Sc3ccccc3N(CCN(C)C)C(=O)[C@@H]2OC(C)=O)cc1 [DILTIAZEM] | Not Active | Not Active
36 | CC(C)(S)[C@@H](N)C(=O)O [PENICILLAMINE] | Not Active | Not Active
37 | CCc1ccc(C(=O)C(C)CN2CCCCC2)cc1 (stereo not drawn) [EPERISONE] | Not Active | Not Active

Molecular target: Kappa-type opioid receptor (Homo sapiens, UniProt P41145)
Sequence (P41145 whole entry): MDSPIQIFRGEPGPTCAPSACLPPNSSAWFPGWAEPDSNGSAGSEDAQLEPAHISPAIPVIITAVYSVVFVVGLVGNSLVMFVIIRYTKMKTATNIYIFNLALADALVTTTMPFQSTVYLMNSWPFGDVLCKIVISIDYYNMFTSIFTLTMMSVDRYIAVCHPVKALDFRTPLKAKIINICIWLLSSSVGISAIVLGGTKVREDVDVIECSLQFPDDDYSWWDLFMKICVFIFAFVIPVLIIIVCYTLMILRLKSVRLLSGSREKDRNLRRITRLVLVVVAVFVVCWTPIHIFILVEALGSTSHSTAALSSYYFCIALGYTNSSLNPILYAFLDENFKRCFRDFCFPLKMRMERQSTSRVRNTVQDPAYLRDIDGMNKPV
Experiment: DRUGMATRIX: Opiate kappa (OP2, KOP) radioligand binding (ligand: [3H] Diprenorphine)
Assay type: cell membranes, HEK293, Membrane
Conditions: hek293; Not Active = under 50% inhibition at 10 µM

Row | Structure (SMILES) | IC50
38 | COc1ccc([C@@H]2Sc3ccccc3N(CCN(C)C)C(=O)[C@@H]2OC(C)=O)cc1 [DILTIAZEM] | Not Active
39 | CC(C)(S)[C@@H](N)C(=O)O [PENICILLAMINE] | Not Active
40 | CCc1ccc(C(=O)C(C)CN2CCCCC2)cc1 (stereo not drawn) [EPERISONE] | Not Active

Tested on: not listed separately
Experiment: DRUGMATRIX: GABAA, Flunitrazepam, Central radioligand binding (ligand: [3H] Flunitrazepam)
Assay type: cell membranes, Rattus norvegicus, Wistar, Brain, Membrane
Conditions: Not Active = under 50% inhibition at 10 µM

Row | Structure (SMILES) | IC50 | Ki
41 | COc1ccc([C@@H]2Sc3ccccc3N(CCN(C)C)C(=O)[C@@H]2OC(C)=O)cc1 [DILTIAZEM] | Not Active | Not Active
42 | CC(C)(S)[C@@H](N)C(=O)O [PENICILLAMINE] | Not Active | Not Active
43 | CCc1ccc(C(=O)C(C)CN2CCCCC2)cc1 (stereo not drawn) [EPERISONE] | Not Active | Not Active

— ChEMBL document CHEMBL1909046, “DrugMatrix in vitro pharmacology data”
